Results: PMC5104769, “Concentration-Dependent Dual Mode of Zn Action at Serotonin 5-HT1A Receptors: In Vitro and In Vivo Studies” (Molecular neurobiology, 2015)

How the values were obtained:
Body temperature in rats = assay type: in vivo, rat; settings: Zn: 30 min at 7.5 and 11.5 mg/kg, 60 min at 5, 7.5 and 11.5 mg/kg
Procedure: The experiments were performed on male Albino Swiss mice (23–25 g) and Sprague Dawley rats (200–250 g) from Charles River, Germany as well as TPH2-Cre-ER^T2 x flx-5-HT1A-flx-YFP mice from Jackson Labs, Bangor ME and the Hen lab, respectively. The animals were kept under standard laboratory conditions with respect to lighting (light phase 7:00–19:00) and temperature (19–21 °C). Food and water were freely available. Each experimental group consisted of eight to ten animals. All of the animals were experimentally naive and were used only once in each test. The experiments were performed during the light period (9:00–14:00 h). All of the procedures were conducted according to the guidelines of the National Institutes of Health Animal Care and Use Committee and were approved by the Ethics Committees of the Institute of Pharmacology, Polish Academy of Sciences in Krakow and the Animal Care Committee, University of Ottawa. […]
The effects of Zn (2, 5, 7.5 and 11.5 mg Zn/kg for rats and 2 and 5 mg/kg for mice, given as a Zn hydroaspartate), 8-OH-DPAT (5 mg/kg) and WAY-100635 (0.1mg/kg) on rectal body temperature were recorded 30 and 60 min after their acute administration. The results were expressed as a change in body temperature with respect to the basal body temperature, which was measured at the beginning of the experiments.

Sprague Dawley rats = assay: Lower lip retraction (LLR) in rats; assay type: in vivo, rat; settings: for Mean LLR score (A) VEH: max score 3/rat
Procedure: The experiments were performed on male Albino Swiss mice (23-25 g) and Sprague Dawley rats (200-250 g) from Charles River, Germany as well as […]-flx-YFP mice from Jackson Labs, Bangor ME and the Hen lab, respectively. The animals were kept under standard laboratory conditions with respect to lighting (light phase 7:00-19:00) and temperature (19-21 °C). Food and water were freely available. Each experimental group consisted of eight to ten animals. All of the animals were experimentally naive and were used only once in each test. The experiments were performed during the light period (9:00-14:00 h). All of the procedures were conducted according to the guidelines of the National Institutes of Health Animal Care and Use Committee and were approved by the Ethics Committees of the Institute of Pharmacology, Polish Academy of Sciences in Krakow and the Animal Care Committee, University of Ottawa. […] Controls were treated with the appropriate diluent, which was indicated as VEH on the graphs and in the tables. LLR was assessed according to the method described by Berendsen et al., [20]. The rats were individually placed in cages (30×25×25 cm) and were scored three times, 15, 30 and 45 min after the administration of Zn as follows: 0=lower incisors not visible, 0.5=partly visible and 1=completely visible. Zn was administered at doses of 2 and 5 mg Zn/kg (given as Zn hydroaspartate, Farmapol, Poland). The maximum total score was 3/rat. In addition, the effects of Zn and WAY-100635 (0.1 mg/kg; […] Sigma) were tested.

SMILES: [Zn+2] [Zn, Zinc]
- change in body temperature (Body temperature in rats): significantly decreased the body temperature
- Mean LLR score (A) VEH (Sprague Dawley rats; Zn 2 mg Zn/kg i.p. alone): 0.0±0.0
- Mean LLR score (B) 8-OH-DPAT 1 mg/kg (Sprague Dawley rats; Zn 2 mg/kg 45 min before 8-OH-DPAT 1 mg/kg): 1.17±0.98
- Mean LLR score (A) VEH (Sprague Dawley rats; Zn 5 mg Zn/kg i.p. alone): 0.0±0.0
- Mean LLR score (B) 8-OH-DPAT 1 mg/kg (Sprague Dawley rats; Zn 5 mg/kg 45 min before 8-OH-DPAT 1 mg/kg): 0.46±0.75
- effect on LLR induced by 8-OH-DPAT (in words) (Sprague Dawley rats; Zn 2 and 5 mg/kg or WAY-100635 0.1 mg/kg before 8-OH-DPAT 1 mg/kg): blocked the LLR induced by 8-OH-DPAT
- induction of LLR (in words) (Sprague Dawley rats; given alone: 8-OH-DPAT 1 mg/kg, Zn 2 and 5 mg/kg, WAY-100635 0.1 mg/kg): did not evoke LLR
